Experimental data: PMC6950969 (Saudi Pharmaceutical Journal : SPJ, 2019)
Converted amounts (≈) assume the structure as drawn. Counter-ions that a name gives are not always drawn.

Tests used:
[1] = tested on: butyrylcholinesterase (BChE); assay: BChE inhibition, Ellman's method; type: biochemical; conditions: for Percentile of inhibition ± S.E.M against BChE: 20 µg/mL
[2] = tested on: butyrylcholinesterase (BChE); conditions: coumarins from Angelica officinalis L. fruits; ref Ferreira et al., 2006; cited from earlier work
hCA II = hCA II (Homo sapiens, UniProt P00918); assay: hCA II inhibition, esterase activity; type: biochemical
[3] = Anti-lipid peroxidation activity
hCA I = hCA I (Homo sapiens, UniProt P00915); assay: hCA I inhibition, esterase activity; type: biochemical
Chain of hCA I (P00915 whole entry): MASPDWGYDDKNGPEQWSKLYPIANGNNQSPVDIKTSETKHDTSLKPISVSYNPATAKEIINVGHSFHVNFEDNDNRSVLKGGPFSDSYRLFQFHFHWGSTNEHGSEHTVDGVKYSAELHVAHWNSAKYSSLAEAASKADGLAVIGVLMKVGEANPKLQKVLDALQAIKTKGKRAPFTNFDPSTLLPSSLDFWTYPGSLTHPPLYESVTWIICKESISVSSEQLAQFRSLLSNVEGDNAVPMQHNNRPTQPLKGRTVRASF

[4] = tested on: Acetylcholinesterase (AChE); assay: AChE inhibition, Ellman's method; type: biochemical; conditions: 20 µg/mL
Caco-2 cells = conditions: purified from A. dahurica; ref Liu et al., 2016; cited from earlier work
pPI3K and pAkt = conditions: cells Caco-2; ref Liu et al., 2016; cited from earlier work

## COc1c2ccoc2cc2oc(=O)ccc12 [Bergapten]
[1]
  Percentile of inhibition ± S.E.M against BChE: 31.00 ± 3.02%
[2]
  inhibition towards butyrylcholinesterase (BChE) (in words): strong inhibition
hCA II
  IC50: 8.25 µM
  Ki: 12.8 ± 1.92 µM
[3]
  IC50 values ± SD, anti-lipid peroxidation (TBA test): 56.99 ± 3.87 mg/L (≈ 264 µM)
hCA I
  IC50: 7.29 µM
  Ki: 4.79 ± 0.57 µM
[4]
  Percentile of inhibition ± S.E.M against AChE: 18.98 ± 2.98%

## O=C(/C=C/c1ccc(O)c(O)c1)O[C@@H]1C[C@](O)(C(=O)O)C[C@@H](O)[C@H]1O [Chlorogenic acid, reference compound]
[3]
  IC50 values ± SD, anti-lipid peroxidation (TBA test): 12.98 ± 4.89 mg/L (≈ 36.6 µM)

## COc1cc2c(cc1OC)C(=O)C(CC1CCN(Cc3ccccc3)CC1)C2 (centres unmarked) [Donepezil, donepezil hydrochloride, reference compound]
[1]
  Percentile of inhibition ± S.E.M against BChE: 90.33 ± 4.16%

## CC1(C)O[C@H]1COc1c2ccoc2cc2oc(=O)ccc12 [Oxypeucedanin]
[1]
  Percentile of inhibition ± S.E.M against BChE: 36.89 ± 1.23%
hCA II
  IC50: 5.29 µM
  Ki: 8.85 ± 1.05 µM
[3]
  IC50 values ± SD, anti-lipid peroxidation (TBA test): 91.27 ± 2.76 mg/L (≈ 319 µM)
hCA I
  IC50: 6.73 µM
  Ki: 5.33 ± 1.08 µM
[4]
  Percentile of inhibition ± S.E.M against AChE: 19.36 ± 1.87%

## CCCOC(=O)c1cc(O)c(O)c(O)c1 [Propyl gallate, reference compound]
[3]
  IC50 values ± SD, anti-lipid peroxidation (TBA test): 3.44 ± 2.05 mg/L (≈ 16.2 µM)

## C[C@@H]1O[C@@H](OC[C@H]2O[C@@H](Oc3c(-c4ccc(O)c(O)c4)oc4cc(O)cc(O)c4c3=O)[C@H](O)[C@@H](O)[C@@H]2O)[C@H](O)[C@H](O)[C@H]1O [Rutin, reference compound]
[3]
  IC50 values ± SD, anti-lipid peroxidation (TBA test): 9.65 ± 3.09 mg/L (≈ 15.8 µM)

## CC[C@H](/C=C/[C@@H](C)[C@H]1CC[C@H]2[C@@H]3CC=C4C[C@@H](O)CC[C@]4(C)[C@H]3CC[C@]12C)C(C)C [Stigmasterol]
[1]
  BChE inhibition activity (in words): did not show considerable inhibition towards BChE
  Percentile of inhibition ± S.E.M against BChE: 13.34 ± 2.99%

## CC(C)=CCOc1c2occc2cc2ccc(=O)oc12 [imperatorin]
[2]
  inhibition towards butyrylcholinesterase (BChE) (in words): strong inhibition

## CC(C)=CCOc1c2ccoc2cc2oc(=O)ccc12 [isoimperatorin]
[2]
  inhibition towards butyrylcholinesterase (BChE) (in words): strong inhibition

## COc1c2occc2cc2ccc(=O)oc12 [xanthotoxin]
[2]
  inhibition towards butyrylcholinesterase (BChE) (in words): strong inhibition

## CC[C@H](CC[C@@H](C)[C@H]1CC[C@H]2[C@@H]3CC=C4C[C@@H](O)CC[C@]4(C)[C@H]3CC[C@]12C)C(C)C [β-Sitosterol]
[1]
  BChE inhibition activity (in words): did not show considerable inhibition towards BChE
  Percentile of inhibition ± S.E.M against BChE: 9.93 ± 1.78%
[3]
  IC50 values ± SD, anti-lipid peroxidation (TBA test): 492.30 ± 2.03 mg/L (≈ 1190 µM)

## Oxypeucedanin hydrate monoacetate
Caco-2 cells
  cancer cell migration (in words): inhibition of cancer cell migration
pPI3K and pAkt
  expression of pPI3K and pAkt (in words): significant down-regulation
